Reference: a melting point compilation (Tetko et al.; mined from patent text by program, amines drawn as free bases though some values may be those of a salt)

For `Cc1c(C)c2c(c(C)c1NC(=O)CC(C)C)C(O)(c1ccc3ccccc3c1)C(C)(C)O2` (stereo not drawn), the melting point was 108 to 110 °C.
`COc1cc(C)c(NS(C)(=O)=O)cc1C(=O)NCC(Cl)CCCCl` (stereo not drawn) gave a melting point of 132 °C.
In the case of `CCCC/C=C\CCCCOc1cccc(C(N)=O)c1`, the melting point is reported as 98 to 100 °C.
For `CCOc1nc(Nc2ccc(F)c(F)c2)nc(NC2CCN(S(=O)(=O)c3ccc(F)cc3)CC2)n1`, the melting point was 240 to 242 °C.
`CON=CNC(=O)c1ccc(C2=NOC(c3cc(Cl)cc(Cl)c3)(C(F)(F)F)C2)cc1C` (stereo not drawn) gave a melting point of 167 to 169 °C.
Work on `O=c1cc(-c2cccc(Cl)c2)c2cc(C(c3ccc(Cl)cc3)n3ccnc3)cc3c2n1CCC3` (stereo not drawn) yielded a melting point of 195 °C.
For `N#Cc1cccc(C(=O)c2ccc(C3CCCCC3)cc2)c1`, the melting point was 73 to 74 °C.
With `CCc1cc2c(=O)c3cccc(C(=O)OC)c3n(Cc3ccc(-c4ccccc4-c4nnn[nH]4)cc3)c2s1` the melting point was 228 to 231 °C.
With `COCCc1nc(-c2ccc(C(F)(F)F)cc2)ncc1COc1ccc(OC(C)(C)C(=O)O)c(C)c1` the melting point was 120 °C.
In the case of `O=C(O)C=Cc1c(-c2ccccc2)nn2ccccc12`, the melting point is reported as 153 to 155 °C.
With `CC(C)(C)OC(=O)C[C@@H]1C[C@@H](COS(C)(=O)=O)NC1=O` the melting point was 114 to 116 °C.
For `CCOC(=O)Cc1ccc(C(=O)c2ccc(Cl)cc2)n1C`, the melting point was 74 to 76 °C.
For `O=C(O)c1cc2ccccc2cc1NC(=O)C(CS)Cc1ccccc1` (stereo not drawn), the melting point was 180 to 182 °C.
With `O=c1[nH]c2ccc(Cl)cc2c(-c2ccccc2)[n+]1[O-]` the melting point was 267 to 269 °C.
`Cc1ccc(C[C@@H](C(=O)O)[C@@H](O)c2ccc(F)cc2)cc1OC(F)(F)C(F)F` (racemic) showed a melting point of 102 to 103 °C.
Compound `N#Cc1cnn(-c2c(Cl)cc(C(F)(F)F)cc2Cl)n1` has a melting point of 51 to 53 °C.
For `Cc1ccc(-c2ccccc2)c(NC(=N)N2CCOCC2)c1`, the melting point was 154 to 155 °C.
`O=C(c1cccnc1)N1CCN=C1Nc1c(Cl)cccc1Cl` showed a melting point of 173 to 174 °C.
Compound `O=C(c1ccccc1)c1ccc(SCCO)cc1` has a melting point of 49 to 51 °C.
With `COc1cc(C(=O)C#CCOC(C)=O)cc(OC)c1OC` the melting point was 104 to 105 °C.
Compound `Oc1ccc(Nc2ncc3nc(Nc4c(F)cc(F)cc4F)n(C4CCCC4)c3n2)cn1` has a melting point of 257 to 260 °C.
With `CCN(CC)c1ccc(C2(N(c3ccccc3)c3ccccc3)OC(=O)c3nccnc32)cc1` (stereo not drawn) the melting point was 140 to 143 °C.
Work on `CNc1cccc(-c2ccc3c(C(N)=O)nn(-c4ccc(S(N)(=O)=O)cc4)c3c2)c1` yielded a melting point of 159 to 160 °C.
With `CN(Cc1cc2c(=O)c(C(=O)NCc3ccc(Cl)cc3)cn(C)c2s1)C[C@@H](O)c1ccc([N+](=O)[O-])cc1` the melting point was 181 to 183 °C.
`COCCc1nc2c(N)nc3ccccc3c2n1CCCCNC(=O)c1cc2ccccc2cn1` showed a melting point of 199 to 200 °C.
Compound `COc1cccc(Oc2cccc(-c3ccccc3)c2)c1` has a melting point of 41 to 42 °C.
`N#Cc1c(N2CCCCC2)cc(-c2ccc(-n3cccc3)cc2)c2c1Cc1ccccc1-2` showed a melting point of 224 to 226 °C.
With `Cc1ccc(C(=O)c2ccc(F)cc2)nc1` the melting point was 127 to 128 °C.
Compound `CC#CCOc1cccc(S(=O)(=O)N(C)C(C(=O)NO)c2ccc(OCCCNC(=O)OCC)cc2)c1` (stereo not drawn) has a melting point of 60 to 62 °C.
Compound `O=C(O)c1cc(NC(=O)C(CS)Cc2ccccc2)ccc1O` (stereo not drawn) has a melting point of 206 to 209 °C.
With `CCCCCS(=O)(=O)NCCCc1ccc(OCCOC)cc1Oc1ncc(C(F)(F)F)cc1Cl` the melting point was 87 to 90 °C.
`O=C1NC(=S)SC1=Cc1ccc(OCc2ccccc2-c2ccccc2C(=O)O)cc1` showed a melting point of over 225 °C.
`Cn1c(C(F)(F)F)cc(=O)n(-c2cc(OCC=C(Cl)Cl)c(Cl)cc2F)c1=O` gave a melting point of 126 to 127 °C.
In the case of `CC#CCOc1cc(Oc2ccc(F)cc2)ncn1`, the melting point is reported as 116 °C.
Work on `CCN(CC)CCOc1ccc2c(C(=O)NC(=N)N)cccc2c1` yielded a melting point of 168 to 169 °C.
For `CCOC(=O)CCn1c(=O)n2cc(C)cc2c2ccccc21`, the melting point was 74 to 76 °C.
In the case of `CCCCc1c(OC)cc(C(=O)O)nc1Cl`, the melting point is reported as 104 to 106 °C.
`O=[N+]([O-])c1ccc(Oc2ccc(C(F)(F)F)cc2Cl)cc1SCl` gave a melting point of 74 to 78 °C.
For `COc1c(Cl)ccc(-c2cc(N)c(Cl)c(C(=O)NOC/C=C/Cl)n2)c1F`, the melting point was 163 to 165 °C.
`Cn1c(Oc2ccc(Cl)c(F)c2)nc2c(-c3cccc(C(=O)O)c3)cccc21` showed a melting point of 283 to 284 °C.
`Cc1ccc(-c2ccc3c(c2)C=C(C(=O)Nc2ccc(CP4(=O)OCCCO4)cc2)CCO3)cc1` gave a melting point of 268 to 269 °C.
In the case of `COc1ccc(C(=O)CC(SC(C)=O)C(=O)O)cc1OC` (stereo not drawn), the melting point is reported as 110 to 112 °C.
For `O=[N+]([O-])c1cccc(-c2cc3c(O)ncnc3o2)c1`, the melting point was over 300 °C.
Work on `NC(=O)C1CCc2[nH]c3ccc(F)c(Cl)c3c2C1` (stereo not drawn) yielded a melting point of 226 to 227 °C.
For `CCc1sc(N)nc1-c1cc(Br)no1`, the melting point was 151 to 152 °C.
With `COc1cc([N+](=O)[O-])c(Br)cc1OCc1ccccc1` the melting point was 134 to 135 °C.
In the case of `FC(F)(F)c1cc(C(F)(F)F)cc(P(=S)(S)c2cc(C(F)(F)F)cc(C(F)(F)F)c2)c1`, the melting point is reported as 72 to 74 °C.
Compound `CC(=O)C(=Cc1cccc(C#N)c1)C(C)=O` has a melting point of 63 to 64 °C.
With `Cc1cc(-n2ccnc2)c2cccc(OCc3c(Cl)ccc(S(=O)(=O)N4CC[C@@H](O)C4)c3Cl)c2n1` the melting point was 166 °C.
For `CC(NC(=O)CCCCCCCCC#CC#CCCCCCCCCC(=O)NC(C)c1ccccc1)c1ccccc1` (stereo not drawn), the melting point was 87.5 to 89 °C.
`O=c1c(-c2ccccc2)c[nH]n1-c1cccc(C(F)(F)F)c1` gave a melting point of 210 to 213 °C.
With `CC(C)(OCc1cc2nc(Cl)ccc2n1S(=O)(=O)c1cccc2ccccc12)C(=O)O` the melting point was 209 °C.
For `COC(=O)c1ccc(-c2nn(Cc3ccccc3)c3ccc(N)cc23)o1`, the melting point was 195 to 196 °C.
`CC1(C)CCCN(CCNc2ccnc3cc(Cl)ccc23)C1` showed a melting point of 151 to 153 °C.
For `O=C(CCCC(=O)c1ccccc1)NC1CCN(Cc2ccc(Cl)c(Cl)c2)CC1`, the melting point was 130 °C.
With `Cc1ccc2sc3ncc(C(=O)Nc4nnn[nH]4)c(=O)n3c2c1` the melting point was over 300 °C.
For `CNC(=O)Cc1c(-c2ccccc2)nc2n(C)c3ccc(C)cc3n12`, the melting point was 251 to 253 °C.
For `CCC(COC(=O)c1ccc(N)c(Cl)c1OC)(c1cccs1)N(C)C` (stereo not drawn), the melting point was 110 to 112 °C.
`O=C(NC(=O)c1cc(F)ccc1Cl)Nc1ccc(OC(F)(F)F)cc1` showed a melting point of 199 °C.
For `Cc1cc(-n2ccnc2)c2cccc(OCc3c(Cl)ccc(S(=O)(=O)N4CCC[C@H]4C(=O)N4CCOCC4)c3Cl)c2n1`, the melting point was 50 °C.
Compound `N#CCc1cccc(CBr)c1[N+](=O)[O-]` has a melting point of 71 to 73 °C.
With `N#CC1=C(C#N)Sc2nc3cc(C#N)ccc3nc2S1` the melting point was 218 to 220 °C.
Work on `C/C(NCC(C)(C)C)=C(\C#N)C(N)=S` yielded a melting point of 143 to 144 °C.
With `CC1(C)C=Cc2c(-c3[nH]c4cn[nH]c(=O)c4c3Cl)ccc(OC(F)F)c2O1` the melting point was 226 to 234 °C.
`Oc1ccccc1C=NC1=NN(c2cnc3ccccc3c2)CC1` gave a melting point of 288 to 289 °C.
With `CC(C)Oc1c(C(N)=O)n(C)c2ccc(OCc3ccccc3)cc12` the melting point was 164 to 166 °C.
For `CCN(O)C(=O)CCc1ccc2c(c1)C(=O)c1ccccc1CO2`, the melting point was 120 °C.
`COc1ccc2c(c1)-c1nn(CCO)c3cccc(c13)N2` gave a melting point of 275 to 276 °C.
In the case of `CCN(CC)c1ccc(C2(c3c(C)n(CC)c4ccccc34)OC(=O)c3cccnc32)c(OC2CCCC2)c1` (stereo not drawn), the melting point is reported as 120 to 125 °C.
`CCNc1nc(C#N)c(C#N)nc1-c1cccc(F)c1` gave a melting point of 126 to 127 °C.
With `O=C(c1ccc2c(c1)OCCO2)c1cc2ccccc2o1` the melting point was 68 to 70 °C.
Compound `CN1C(=O)CN(C(=O)N2CC(=O)N(C)c3ccc(Cl)cc3C2c2ccccc2)C(c2ccccc2)c2cc(Cl)ccc21` (stereo not drawn) has a melting point of 263 to 266 °C.
For `Cc1c[nH]c2c(/C=C/C#N)cccc12`, the melting point was 225 to 227 °C.
Compound `Cc1cc(CO)cc(C)c1O` has a melting point of 102 to 104 °C.
For `COc1ccc(C2=CCN(Cc3n[nH]c4c(F)c(F)ccc34)CC2)cc1`, the melting point was 195 to 197 °C.
`COc1cc2ncnc(Nc3cccc(Cl)c3F)c2cc1OC1CCN(C(=O)OC(C)(C)C)CC1` gave a melting point of 192 to 194 °C.
Work on `CCCCCCCCCCSC(=O)CS(=O)(=O)Nc1c(C(C)C)cccc1C(C)C` yielded a melting point of 57 to 59 °C.
`C=C(C)C(=O)Oc1cccc(O)c1O` showed a melting point of 100 to 102 °C.
`Clc1cc(Cl)c2c(c1)[nH]c1c2ccc2cc[nH]c21` gave a melting point of over 250 °C.
`CCOC(=O)C(C(=O)OCC)C(=O)C1CCC2C3CCC4CC(O)CCC4(C)C3C(=O)CC12C` (stereo not drawn) gave a melting point of 116 to 117 °C.
`COc1nc(NC(=O)NS(=O)(=O)c2ccccc2S(C)(=O)=O)nc(N(C)C)n1` showed a melting point of 192 to 195 °C.
`CCN(C(=O)c1ccc(Cl)c(Cl)c1)c1ccc(C)cc1CCC(=O)O` gave a melting point of 107 to 109 °C.
`Cc1ccccc1-c1nc2c(o1)C(=O)c1ccccc1C2=O` gave a melting point of 212 °C.
`CCSCCCCCSCCCCC(=O)O` showed a melting point of 49.5 to 50 °C.
Work on `O=C(Oc1ccccc1)c1cc2cccc(O)c2[nH]1` yielded a melting point of 156 to 157 °C.
`N#CSCCON=C(C(=O)O)c1csc(NC(c2ccccc2)(c2ccccc2)c2ccccc2)n1` gave a melting point of 194 °C.
With `COc1cc(Nc2nccc(-c3sc(N)nc3C)n2)cc(OC)c1` the melting point was 269 to 271 °C.
`CCS(=O)(=O)CCON=Cc1nn(-c2c(Cl)cc(C(F)(F)F)cc2Cl)c(N)c1S(C)=O` (stereo not drawn) gave a melting point of 144 to 148 °C.
For `CC(C)(C)CNc1nc(C#N)nc2ccc(OCc3ccccn3)cc12`, the melting point was 160 °C.
For `C#CCNC(=O)c1cccc(F)c1Nc1nc(Nc2ccc3c(c2)N(C(C)=O)CCCC3)ncc1Cl`, the melting point was 210 to 214 °C.
With `CC(=O)SCCc1ccc(C=O)cc1` the melting point was 35 °C.
In the case of `Cc1cccc(-n2c(-c3sc(Nc4ccc(Cl)cc4)nc3C)nc3ccccc3c2=O)c1`, the melting point is reported as 236 to 238 °C.
For `CC(C)(C)c1cc(CC2SCNC2=O)ccc1O` (stereo not drawn), the melting point was 65 to 70 °C.
`O=C(O)CSc1cccc2c1S(=S)N=N2` (stereo not drawn) showed a melting point of 207 to 209 °C.
Compound `CC1(C)C=C(c2ccccn2)c2cc(Cl)ccc2OC1` has a melting point of 100 °C.
`COC(=O)c1ccc(-c2ccc3nc(OC)ccc3c2)cc1` gave a melting point of 158 to 161 °C.
`O=C(Nc1ccc(N(CCCl)CCCl)cc1)Nc1cccc([N+](=O)[O-])c1` gave a melting point of 246 to 247 °C.
In the case of `COC(=O)NS(=O)(=O)c1ccc(NC(=O)COc2ccc(Cl)cc2C)cc1`, the melting point is reported as 184 to 185 °C.
